{"source": "patent US20240025891A1", "about": "(Celgene Corporation, priority 2020, published 2024)", "tested_on": "Onchocerca gutturosa adult male worms", "assay": "Onchocerciasis in vitro screening model Onchocerca gutturosa (worm motility score and MTT/formazan colorimetry)", "settings": "Onchocerca gutturosa, read-out: O. gutt Act class"}
{"smiles": "Cc1ccc(-c2csc(Nc3cc(C)ccn3)n2)nc1", "note": "[Example 1, N-(4-Methylpyridin-2-yl)-4-(5-methylpyridin-2-yl)thiazol-2-amine]", "values": [{"measurement": "IC50", "value": "< 200", "unit": "nM"}]}
{"smiles": "Cc1ccnc(Nc2nc(-c3cccc(C)n3)cs2)c1", "note": "[Example 2]", "values": [{"measurement": "IC50", "value": "200 to 500", "unit": "nM"}]}
{"smiles": "COc1cccnc1-c1csc(Nc2cc(C)ccn2)n1", "note": "[Example 7]", "values": [{"measurement": "IC50", "value": "500 to 5000", "unit": "nM"}]}
{"smiles": "CCOc1cccc(-c2csc(Nc3ncccc3C)n2)n1", "note": "[Example 71]", "values": [{"measurement": "IC50", "value": "500 to 5000", "unit": "nM"}]}
{"smiles": "CCOc1cccnc1-c1csc(Nc2cc(C)ccn2)n1", "note": "[Example 72, 4-(3-ethoxypyridin-2-yl)-N-(4-methylpyridin-2-yl)thiazol-2-amine]", "values": [{"measurement": "IC50", "value": "< 200", "unit": "nM"}]}
{"smiles": "CC(=O)N(C)c1cc(C(F)(F)F)cnc1Nc1nc(-c2cc(OC3COC3)ccn2)cs1", "note": "[Example 73, N-methyl-N-(2-(4-(4-(oxetan-3-yloxy)pyridin-2-yl)thiazol-2-ylamino)-5-(trifluoromethyl)pyridin-3-yl)acetamide]", "values": [{"measurement": "IC50", "value": "200 to 500", "unit": "nM"}]}
{"smiles": "CCOc1cnc(-c2csc(Nc3cc(C)ccn3)n2)c(C)c1", "note": "[Example 74, 4-(5-ethoxy-3-methylpyridin-2-yl)-N-(4-methylpyridin-2-yl)thiazol-2-amine]", "values": [{"measurement": "IC50", "value": "< 200", "unit": "nM"}]}
{"smiles": "CCOc1cnc(-c2csc(Nc3ncccc3C)n2)c(C)c1", "note": "[Example 75, 4-(5-ethoxy-3-methylpyridin-2-yl)-N-(3-methylpyridin-2-yl)thiazol-2-amine]", "values": [{"measurement": "IC50", "value": "< 200", "unit": "nM"}]}
{"smiles": "CC(=O)N(C)c1cc(C(F)(F)F)cnc1Nc1nc(-c2cc3c(cn2)N(C)CC3)cs1", "note": "[Example 76, N-methyl-N-(2-(4-(1-methyl-2,3-dihydro-1H-pyrrolo[2,3-c]pyridin-5-yl)thiazol-2-ylamino)-5-(trifluoromethyl)pyridin-3-yl)acetamide]", "values": [{"measurement": "IC50", "value": "< 200", "unit": "nM"}]}
{"smiles": "CCOc1cccnc1-c1csc(Nc2ncccc2C)n1", "note": "[Example 77, 4-(3-ethoxypyridin-2-yl)-N-(3-methylpyridin-2-yl)thiazol-2-amine]", "values": [{"measurement": "IC50", "value": "< 200", "unit": "nM"}]}
{"smiles": "CCOc1cccc(-c2csc(Nc3cc(C)ccn3)n2)n1", "note": "[Example 78, 4-(6-ethoxypyridin-2-yl)-N-(4-methylpyridin-2-yl)thiazol-2-amine]", "values": [{"measurement": "IC50", "value": "500 to 5000", "unit": "nM"}]}
{"smiles": "CCOc1ccc(-c2csc(Nc3ncc(F)cc3C)n2)nc1", "note": "[Example 79, 4-(5-ethoxypyridin-2-yl)-N-(5-fluoro-3-methylpyridin-2-yl)thiazol-2-amine]", "values": [{"measurement": "IC50", "value": "< 200", "unit": "nM"}]}
{"smiles": "CSc1ccc(-c2csc(Nc3ncccc3C)n2)nc1", "note": "[Example 80, N-(3-methylpyridin-2-yl)-4-(5-(methylthio)pyridin-2-yl)thiazol-2-amine]", "values": [{"measurement": "IC50", "value": "< 200", "unit": "nM"}]}
{"smiles": "CCOc1ccc(-c2csc(Nc3ccc(C)cn3)n2)nc1", "note": "[Example 81, 4-(5-ethoxypyridin-2-yl)-N-(5-methylpyridin-2-yl)thiazol-2-amine]", "values": [{"measurement": "IC50", "value": "< 200", "unit": "nM"}]}
{"smiles": "CC(=O)N(C)c1cc(C(F)(F)F)cnc1Nc1nc(-c2cc(OC(C)C)ccn2)cs1", "note": "[Example 82, N-(2-(4-(4-isopropoxypyridin-2-yl)thiazol-2-ylamino)-5-(trifluoromethyl)pyridin-3-yl)-N-methylacetamide]", "values": [{"measurement": "IC50", "value": "< 200", "unit": "nM"}]}
{"smiles": "CCOc1ccc(-c2csc(Nc3ncccc3C3CC3)n2)nc1", "note": "[Example 83, N-(3-cyclopropylpyridin-2-yl)-4-(5-ethoxypyridin-2-yl)thiazol-2-amine]", "values": [{"measurement": "IC50", "value": "200 to 500", "unit": "nM"}]}
{"smiles": "CCOc1ccc(-c2csc(Nc3ncc(C(F)(F)F)cc3C)n2)nc1", "note": "[Example 84, 4-(5-ethoxypyridin-2-yl)-N-(3-methyl-5-(trifluoromethyl)pyridin-2-yl)thiazol-2-amine]", "values": [{"measurement": "IC50", "value": "200 to 500", "unit": "nM"}]}
{"smiles": "CCOc1ccc(-c2csc(Nc3ccc(Cl)cn3)n2)nc1", "note": "[Example 85, N-(5-chloropyridin-2-yl)-4-(5-ethoxypyridin-2-yl)thiazol-2-amine]", "values": [{"measurement": "IC50", "value": "200 to 500", "unit": "nM"}]}
{"smiles": "CCOc1ccc(-c2csc(Nc3nc(C)ccc3C)n2)nc1", "note": "[Example 86, N-(3,6-dimethylpyridin-2-yl)-4-(5-ethoxypyridin-2-yl)thiazol-2-amine]", "values": [{"measurement": "IC50", "value": "< 200", "unit": "nM"}]}
{"smiles": "CCOc1ccc(Nc2nc(-c3ccc(OCC)cn3)cs2)nc1", "note": "[Example 87, N,4-bis(5-ethoxypyridin-2-yl)thiazol-2-amine]", "values": [{"measurement": "IC50", "value": "< 200", "unit": "nM"}]}
{"smiles": "CCOc1ccc(-c2csc(Nc3ncc(C)cc3C)n2)nc1", "note": "[Example 88, N-(3,5-dimethylpyridin-2-yl)-4-(5-ethoxypyridin-2-yl)thiazol-2-amine]", "values": [{"measurement": "IC50", "value": "< 200", "unit": "nM"}]}
{"smiles": "Cc1ccnc(Nc2nc(-c3ccc(Cl)cn3)cs2)c1", "note": "[Example 89, 4-(5-chloropyridin-2-yl)-N-(4-methylpyridin-2-yl)thiazol-2-amine]", "values": [{"measurement": "IC50", "value": "200 to 500", "unit": "nM"}]}
{"smiles": "CCOc1ccc(-c2csc(Nc3cccc(C)n3)n2)nc1", "note": "[Example 90, 4-(5-ethoxypyridin-2-yl)-N-(6-methylpyridin-2-yl)thiazol-2-amine]", "values": [{"measurement": "IC50", "value": "< 200", "unit": "nM"}]}
{"smiles": "CCOc1ccc(-c2csc(Nc3cc(C)ccn3)n2)nc1", "note": "[Example 91, 4-(5-ethoxypyridin-2-yl)-N-(4-methylpyridin-2-yl)thiazol-2-amine]", "values": [{"measurement": "IC50", "value": "< 200", "unit": "nM"}]}
{"smiles": "Cc1ccnc(Nc2nc(-c3ncccc3C#N)cs2)c1", "note": "[Example 92, 2-(2-(4-methylpyridin-2-ylamino)thiazol-4-yl)nicotinonitrile]", "values": [{"measurement": "IC50", "value": "< 200", "unit": "nM"}]}
{"smiles": "CC(=O)N(C)c1cc(C(F)(F)F)cnc1Nc1nc(-c2ccc(OC(C)C)cn2)cs1", "note": "[Example 93, N-(2-(4-(5-isopropoxypyridin-2-yl)thiazol-2-ylamino)-5-(trifluoromethyl)pyridin-3-yl)-N-methylacetamide]", "values": [{"measurement": "IC50", "value": "< 200", "unit": "nM"}]}
{"smiles": "Cc1cccnc1Nc1nc(-c2ccc(Cl)cn2)cs1", "note": "[Example 94, 4-(5-chloropyridin-2-yl)-N-(3-methylpyridin-2-yl)thiazol-2-amine]", "values": [{"measurement": "IC50", "value": "< 200", "unit": "nM"}]}
{"smiles": "CCOc1ccc(-c2csc(Nc3ccc(C(F)(F)F)cn3)n2)nc1", "note": "[Example 95, 4-(5-ethoxypyridin-2-yl)-N-(5-(trifluoromethyl)pyridin-2-yl)thiazol-2-amine]", "values": [{"measurement": "IC50", "value": "< 200", "unit": "nM"}]}
{"smiles": "COc1ccnc(-c2csc(Nc3ncc(C(F)(F)F)cc3N(C)C(C)=O)n2)c1", "note": "[Example 96, N-(2-(4-(4-methoxypyridin-2-yl)thiazol-2-ylamino)-5-(trifluoromethyl)pyridin-3-yl)-N-methylacetamide]", "values": [{"measurement": "IC50", "value": "200 to 500", "unit": "nM"}]}
{"smiles": "Cc1cc(C(F)(F)F)cnc1Nc1nc(-c2cc3c(cn2)N(C)CC3)cs1", "note": "[Example 97, 4-(1-methyl-2,3-dihydro-1H-pyrrolo[2,3-c]pyridin-5-yl)-N-(3-methyl-5-(trifluoromethyl)pyridin-2-yl)thiazol-2-amine]", "values": [{"measurement": "IC50", "value": "< 200", "unit": "nM"}]}
{"smiles": "Cc1ccnc(Nc2nc(-c3cc(OC4CN(C)C4)ccn3)cs2)c1", "note": "[Example 98, 4-(4-(1-methylazetidin-3-yloxy)pyridin-2-yl)-N-(4-methylpyridin-2-yl)thiazol-2-amine]", "values": [{"measurement": "IC50", "value": "< 200", "unit": "nM"}]}
{"smiles": "Cc1ccnc(-c2csc(Nc3ncccc3-c3ccccc3)n2)c1", "note": "[Example 99, 4-(4-methylpyridin-2-yl)-N-(3-phenylpyridin-2-yl)thiazol-2-amine]", "values": [{"measurement": "IC50", "value": "500 to 5000", "unit": "nM"}]}
{"smiles": "Cc1cccnc1-c1csc(Nc2cc(-c3ccccc3)ccn2)n1", "note": "[Example 100, 4-(3-methylpyridin-2-yl)-N-(4-phenylpyridin-2-yl)thiazol-2-amine]", "values": [{"measurement": "IC50", "value": "< 200", "unit": "nM"}]}
{"smiles": "Cc1ccnc(Nc2nc(-c3cc(-c4ccccc4)ccn3)cs2)c1", "note": "[Example 101, N-(4-methylpyridin-2-yl)-4-(4-phenylpyridin-2-yl)thiazol-2-amine]", "values": [{"measurement": "IC50", "value": "< 200", "unit": "nM"}]}
{"smiles": "Cc1ccnc(Nc2nc(-c3cc(OC4COC4)ccn3)cs2)c1", "note": "[Example 102, N-(4-methylpyridin-2-yl)-4-(4-(oxetan-3-yloxy)pyridin-2-yl)thiazol-2-amine]", "values": [{"measurement": "IC50", "value": "< 200", "unit": "nM"}]}
